We go through 20 compounds from patent publication US10584114B2, “Inhibitors of RET” (BLUEPRINT MEDICINES CORPORATION, priority 2015, dated 2020).

The target of assay [1] is RET V804L (Homo sapiens (Human), UniProt P07949, V804L). Briefly: RET V804L Gatekeeper Mutant Assay at KM (Caliper electrophoretic mobility shift). Format: biochemical. Particulars: 10 μM ATP, 25° C., 120 minutes.
The target in assay [2] is wild type RET (Homo sapiens (Human), UniProt P07949). Briefly: RET Wild Type Assay at KM (Caliper electrophoretic mobility shift). The class given is biochemical. To be noted: 25 μM ATP, 25° C., 120 minutes.
Sequence of wild type RET (P07949 658-1114): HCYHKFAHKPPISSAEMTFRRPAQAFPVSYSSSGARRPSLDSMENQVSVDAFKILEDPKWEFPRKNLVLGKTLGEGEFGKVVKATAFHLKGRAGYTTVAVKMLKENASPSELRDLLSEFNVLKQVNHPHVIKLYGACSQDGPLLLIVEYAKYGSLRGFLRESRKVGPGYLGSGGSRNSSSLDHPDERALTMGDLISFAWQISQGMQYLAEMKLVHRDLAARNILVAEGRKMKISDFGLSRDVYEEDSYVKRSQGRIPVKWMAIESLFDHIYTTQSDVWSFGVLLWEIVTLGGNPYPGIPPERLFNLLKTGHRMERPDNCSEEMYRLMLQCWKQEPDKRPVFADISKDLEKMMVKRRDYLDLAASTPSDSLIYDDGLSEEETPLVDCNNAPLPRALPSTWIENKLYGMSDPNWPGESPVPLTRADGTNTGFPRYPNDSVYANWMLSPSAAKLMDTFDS

Sequence of RET V804L (P07949 658-1114 V804L): as the sequence (P07949 658-1114) above, with V147L counted along it

As a reminder, the IC50 is the concentration at which inhibition is half-maximal. `Cc1cc(Nc2cc(C)[nH]n2)nc([C@H]2CC[C@H](C(=O)NCc3ccc(-n4cc(Cl)cn4)nc3)CC2)n1` [Compound 113]: the IC50 in assay [1] and in assay [2] was < 10 nM each time.

On to `CO[C@]1(C(=O)N[C@@H](C)c2ccc(-n3cc(F)cn3)nc2)CC[C@](O)(c2cc(C)cc(Nc3cc(C)[nH]n3)n2)CC1` [Compound 137], for which the IC50 in assay [1] and in assay [2] was > 100 nM each time.

`Cc1cc(Nc2cc(C)[nH]n2)nc([C@]2(O)CC[C@H](C(=O)N[C@@H](C)c3ccc(-n4cc(F)cn4)nc3)CC2)c1` [Compound 119]: the IC50 in assay [1] and in assay [2] was > 100 nM in each case.

Take `Cc1cc(Nc2cc(C)[nH]n2)nc([C@]2(O)CC[C@@H](C(=O)N[C@@H](C)c3ccc(-n4cc(F)cn4)nc3)CC2)c1` [Compound 120, (1s,4R)—N—((S)-1-(6-(4-fluoro-1H-pyrazol-1-yl)pyridin-3-yl)ethyl)-4-hydroxy-4-(4-methyl-6-(5-methyl-1H-pyrazol-3-ylamino)pyridin-2-yl)cyclohexanecarboxamide]: the IC50 in assay [1] and in assay [2] was < 10 nM each time.

Take `CCO[C@]1(C(=O)N[C@@H](C)c2ccc(-n3cc(F)cn3)nc2)CC[C@H](c2nc(C)cc(Nc3cc(C)[nH]n3)n2)CC1` [Compound 136]: the half-inhibitory concentration (IC50) in assay [1] and in assay [2] was < 10 nM throughout.

Take `CO[C@]1(C(=O)N[C@@H](C)c2cnc(-n3cc(F)cn3)cn2)CC[C@H](c2nc(C)cc(Nc3cc(C)[nH]n3)n2)CC1` [Compound 131]: the 50% inhibitory concentration (IC50) in assay [1] and in assay [2] was < 10 nM each time.

As to `CO[C@]1(C(=O)NCc2cnc(-n3cc(F)cn3)cn2)CC[C@H](c2nc(C)cc(Nc3cc(C)[nH]n3)n2)CC1` [Compound 150], the IC50 in assay [1] and in assay [2] was < 10 nM each time.

Turning to `Cc1cc(Nc2cc(C)[nH]n2)nc([C@@]2(O)CC[C@H](C(=O)NCc3ccc(-n4cccn4)nc3)[C@H](C)C2)c1` [Compound 107], the 50% inhibitory concentration (IC50) in assay [1] and in assay [2] was < 10 nM in each case.

On to `Cc1cc(Nc2cc(C)[nH]n2)nc(C2=CCC(C(=O)N[C@@H](C)c3ccc(-n4cc(F)cn4)nc3)CC2)n1` (stereo partly shown) [Compound 144], for which the IC50 in assay [1] and in assay [2] was < 10 nM throughout.

With `Cc1cc(Nc2cc(C)[nH]n2)nc([C@H]2CC[C@H](C(=O)NCc3ccc(-n4nc(C)cc4C)nc3)CC2)n1` [Compound 106], the figures for the IC50 in assay [1] and in assay [2] were 10 to 100 nM and < 10 nM, respectively.

For the compound `Cc1cc(Nc2cc(C)[nH]n2)nc([C@@H]2CC[C@@H](C(=O)N[C@@H](C)c3ccc(-n4cc(F)cn4)nc3)C(C)(C)C2)n1` [Compound 124], the results for the IC50 in assay [1] and in assay [2] were 10 to 100 nM and > 100 nM, respectively.

Regarding `Cc1cc(Nc2cc(C)[nH]n2)nc([C@H]2CC[C@H](C(=O)N[C@@H](C)c3ccc(-n4cccn4)nc3)CC2)n1` [Compound 103], the IC50 in assay [1] and in assay [2] was < 10 nM throughout.

As for `Cc1cc(Nc2cc(C)[nH]n2)nc([C@]2(O)CC[C@@H](C(=O)N[C@@H](C)c3ccc(-n4cc(F)cn4)nc3)OC2)c1` [Compound 146], the IC50 in assay [1] and in assay [2] was < 10 nM in each case.

With `Cc1cc(Nc2cc(C)[nH]n2)nc([C@]2(O)CC[C@@H](C(=O)NCc3ccc(-n4cccn4)nc3)C(C)(C)C2)c1` [Compound 114], the half-inhibitory concentration (IC50) in assay [1] and in assay [2] was < 10 nM throughout.

On to `Cc1cc(Nc2cc(C)[nH]n2)nc([C@H]2CC[C@H](C(=O)NCc3ccc(-n4cccn4)nc3)CC2)n1` [Compound 101], for which the IC50 in assay [1] and in assay [2] was < 10 nM in each case.

Regarding `CO[C@]1(C(=O)N[C@@H](C)c2ccc(-n3cc(F)cn3)nc2)CC[C@@](O)(c2cc(C)cc(Nc3cc(C)[nH]n3)n2)CC1` [Compound 138], the IC50 in assay [1] and in assay [2] was < 10 nM each time.

On to `Cc1cc(Nc2cc(C)[nH]n2)nc([C@@H]2CC[C@@H](C(=O)N[C@@H](C)c3ccc(-n4cc(F)cn4)nc3)[C@@H](C)C2)n1` [Compound 116], for which the IC50 is 10 to 100 nM in assay [1] and > 100 nM in assay [2].

Regarding `Cc1cc(Nc2cc(C)[nH]n2)nc([C@H]2CC[C@@H](C(=O)NCc3ccc(-n4cccn4)nc3)CC2)n1` [Compound 100], the IC50 in assay [1] and in assay [2] was > 100 nM in each case.

Consider `Cc1cc(Nc2cc(C)[nH]n2)nc([C@@H]2CC[C@@H](C(=O)NCc3ccc(-n4cccn4)nc3)[C@@H](C)C2)n1` [Compound 104], for which the IC50 in assay [1] and in assay [2] was > 100 nM throughout.

Regarding `Cc1cc(Nc2cc(C)[nH]n2)nc([C@H]2CC[C@@H](C(=O)N[C@@H](C)c3ccc(-n4cccn4)nc3)CC2)n1` [Compound 102], the IC50 in assay [1] and in assay [2] was > 100 nM throughout.
